We go through 18 molecules from patent US8952157B2, “Apoptosis-inducing agents for the treatment of cancer and immune and autoimmune diseases” (AbbVie Inc., priority 2008, dated 2015).

Read-outs that look alike come from different tables or passages of the source.

This assay deals with GST-Bcl-2 (Homo sapiens (Human), UniProt P10415). The assay is described as follows: Time Resolved-Fluorescence Resonance Energy Transfer (TR-FRET) Bcl-2 binding assay. The gist of the method: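 Ki values derived from TR-FRET displacement of F-Bak peptide from GST-Bcl-2, detected with Tb-labelled anti-GST antibody (ex 340, em 520/495 nm). Compound dilution series started at 50 μM (2× starting concentration); room-temperature incubation 3 hours.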
Sequence of GST-Bcl-2 (P10415 whole entry): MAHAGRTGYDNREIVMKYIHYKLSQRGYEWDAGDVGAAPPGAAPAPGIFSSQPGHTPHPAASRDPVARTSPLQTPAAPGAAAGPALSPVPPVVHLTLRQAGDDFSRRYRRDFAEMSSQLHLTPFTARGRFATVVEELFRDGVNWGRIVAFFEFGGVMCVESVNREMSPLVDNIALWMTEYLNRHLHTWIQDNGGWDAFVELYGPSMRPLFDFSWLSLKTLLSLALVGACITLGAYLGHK
(TR-FRET usually uses a lanthanide donor and a delayed reading to cut background.)

Where [1] appears, read: GST-Bcl-2 1 nM, F-Bak peptide probe 100 nM, Tb-anti-GST antibody 1 nM, Ki by Wang's equation.

Turning to `CC1(C)CCC(CN2CCN(c3ccc(C(=O)NS(=O)(=O)c4ccc(NCC5CCOCC5)c([N+](=O)[O-])c4)c(Oc4ccc5c(c4)CC(=O)N5)c3)CC2)=C(c2ccc(Cl)cc2)C1` [Example 267, 4-(4-{[2-(4-chlorophenyl)-4,4-dimethylcyclohex-1-en-1-yl]methyl}piperazin-1-yl)-N-({3-nitro-4-[(tetrahydro-2H-pyran-4-ylmethyl)amino]phenyl}sulfonyl)-2-[(2-oxo-2,3-dihydro-1H-indol-5-yl)oxy]benzamide], the Ki under setting [1] was 28.4 nM. The same measure, in the same setting: the figure for `CC1(C)CCC(CN2CCN(c3ccc(C(=O)NS(=O)(=O)c4ccc(NC[C@H]5CCCOC5)c([N+](=O)[O-])c4)c(Oc4cc5cc[nH]c5cc4F)c3)CC2)=C(c2ccc(Cl)cc2)C1` [Example 259, 4-(4-{[2-(4-chlorophenyl)-4,4-dimethylcyclohex-1-en-1-yl]methyl}piperazin-1-yl)-2-[(6-fluoro-1H-indol-5-yl)oxy]-N-[(3-nitro-4-{[(3R)-tetrahydro-2H-pyran-3-ylmethyl]amino}phenyl)sulfonyl]benzamide] is 0.165 nM. In turn, `O=C(NS(=O)(=O)c1ccc(N[C@H]2CC[C@H](N3CCOCC3)CC2)c(S(=O)(=O)C(F)(F)F)c1)c1ccc(N2CCN(CC3=C(c4ccc(Cl)cc4)CCOCC3)CC2)cc1Oc1cc2cc[nH]c2cc1Cl` [Example 314, Trans-2-[(6-chloro-1H-indol-5-yl)oxy]-4-(4-{[5-(4-chlorophenyl)-2,3,6,7-tetrahydrooxepin-4-yl]methyl}piperazin-1-yl)-N-({4-[(4-morpholin-4-ylcyclohexyl)amino]-3-[(trifluoromethyl)sulfonyl]phenyl}sulfonyl)benzamide] came in with a Ki of 3.09 nM. For the molecule `CN(C)CCCc1c[nH]c2ccc(Oc3cc(N4CCN(Cc5ccccc5-c5ccc(Cl)cc5)CC4)ccc3C(=O)NS(=O)(=O)c3ccc(NCC4CCOCC4)c([N+](=O)[O-])c3)cc12` [Example 106, 4-(4-((4′-chloro-1,1′-biphenyl-2-yl)methyl)piperazin-1-yl)-2-((3-(3-(dimethylamino)propyl)-1H-indol-5-yl)oxy)-N-((3-nitro-4-((tetrahydro-2H-pyran-4-ylmethyl)amino)phenyl)sulfonyl)benzamide], the inhibitory constant (Ki) under setting [1] is 215 nM. On to `CC1(C)CCC(CN2CCN(c3ccc(C(=O)NS(=O)(=O)c4ccc(NC5CCN(C6CCOCC6)CC5)c([N+](=O)[O-])c4)c(Oc4cc5cc[nH]c5cc4F)c3)CC2)=C(c2ccc(Cl)cc2)C1` [Example 193, 4-(4-{[2-(4-chlorophenyl)-4,4-dimethylcyclohex-1-en-1-yl]methyl}piperazin-1-yl)-2-[(6-fluoro-1H-indol-5-yl)oxy]-N-({3-nitro-4-[(1-tetrahydro-2H-pyran-4-ylpiperidin-4-yl)amino]phenyl}sulfonyl)benzamide], for which, under setting [1], the inhibitory constant (Ki) amounted to 0.064 nM. In turn, `CC1(C)CCC(CN2CCN(c3ccc(C(=O)NS(=O)(=O)c4ccc(OCC5(F)CCOCC5)c(S(=O)(=O)C(F)(F)F)c4)c(Oc4cnc(N)c(Cl)c4)c3)CC2)=C(c2ccc(Cl)cc2)C1` [Example 348, 2-[(6-amino-5-chloropyridin-3-yl)oxy]-4-(4-{[2-(4-chlorophenyl)-4,4-dimethylcyclohex-1-en-1-yl]methyl}piperazin-1-yl)-N-({4-[(4-fluorotetrahydro-2H-pyran-4-yl)methoxy]-3-[(trifluoromethyl)sulfonyl]phenyl}sulfonyl)benzamide] showed a Ki under setting [1] of 3.78 nM. On to `CN1CCN(Nc2ccc(S(=O)(=O)NC(=O)c3ccc(N4CCN(CC5=C(c6ccc(Cl)cc6)CC(C)(C)OC5)CC4)cc3Oc3cc4cc[nH]c4cc3F)cc2[N+](=O)[O-])CC1` [Example 316, 4-(4-{[4-(4-chlorophenyl)-6,6-dimethyl-5,6-dihydro-2H-pyran-3-yl]methyl}piperazin-1-yl)-2-[(6-fluoro-1H-indol-5-yl)oxy]-N-({4-[(4-methylpiperazin-1-yl)amino]-3-nitrophenyl}sulfonyl)benzamide], for which the Ki under setting [1] stood at 0.058 nM. For the molecule `CC1(C)CCC(CN2CCN(c3ccc(C(=O)NS(=O)(=O)c4ccc(OCC5(F)CCOCC5)c([N+](=O)[O-])c4)c(Oc4cnc(N)c(Br)c4)c3)CC2)=C(c2ccc(Cl)cc2)C1` [Example 360, 2-[(6-amino-5-bromopyridin-3-yl)oxy]-4-(4-{[2-(4-chlorophenyl)-4,4-dimethylcyclohex-1-en-1-yl]methyl}piperazin-1-yl)-N-({4-[(4-fluorotetrahydro-2H-pyran-4-yl)methoxy]-3-nitrophenyl}sulfonyl)benzamide], the affinity under setting [1] corresponds to a Ki of 0.05 nM. As to `CC(C)N1CCC2(CCC(c3ccc(Cl)cc3)=C(CN3CCN(c4ccc(C(=O)NS(=O)(=O)c5ccc(NCC6CCOCC6)c([N+](=O)[O-])c5)c(Oc5cnc(N)c(Cl)c5)c4)CC3)C2)CC1` [Example 392, 2-[(6-amino-5-chloropyridin-3-yl)oxy]-4-(4-{[9-(4-chlorophenyl)-3-isopropyl-3-azaspiro[5.5]undec-8-en-8-yl]methyl}piperazin-1-yl)-N-({3-nitro-4-[(tetrahydro-2H-pyran-4-ylmethyl)amino]phenyl}sulfonyl)benzamide], the inhibitory constant (Ki) under setting [1] is less than 0.01 nM. The same measure, in the same setting: the value for `CC1(C)CCC(CN2CCN(c3ccc(C(=O)NS(=O)(=O)c4ccc(NC5CCN(CC6CC6)CC5)c([N+](=O)[O-])c4)c(Oc4cc5cc[nH]c5cc4F)c3)CC2)=C(c2ccc(Cl)cc2)C1` [Example 236, 4-(4-{[2-(4-chlorophenyl)-4,4-dimethylcyclohex-1-en-1-yl]methyl}piperazin-1-yl)-N-[(4-{[1-(cyclopropylmethyl)piperidin-4-yl]amino}-3-nitrophenyl)sulfonyl]-2-[(6-fluoro-1H-indol-5-yl)oxy]benzamide] was 0.071 nM; that for `CC1(C)CCC(CN2CCN(c3ccc(C(=O)NS(=O)(=O)c4ccc(NCC5CCOCC5)c([N+](=O)[O-])c4)c(Oc4ccccc4-c4cccnc4N)c3)CC2)=C(c2ccc(Cl)cc2)C1` [Example 407, 2-[2-(2-aminopyridin-3-yl)phenoxy]-4-(4-{[2-(4-chlorophenyl)-4,4-dimethylcyclohex-1-en-1-yl]methyl}piperazin-1-yl)-N-({3-nitro-4-[(tetrahydro-2H-pyran-4-ylmethyl)amino]phenyl}sulfonyl)benzamide] was 0.946 nM; that for `CC(=O)Nc1cccc(Oc2cc(N3CCN(CC4=C(c5ccc(Cl)cc5)CC(C)(C)CC4)CC3)ccc2C(=O)NS(=O)(=O)c2ccc(NC3CCN(C4CCOCC4)CC3)c([N+](=O)[O-])c2)c1` [Example 225, 2-[3-(acetylamino)phenoxy]-4-(4-{[2-(4-chlorophenyl)-4,4-dimethylcyclohex-1-en-1-yl]methyl}piperazin-1-yl)-N-({3-nitro-4-[(1-tetrahydro-2H-pyran-4-ylpiperidin-4-yl)amino]phenyl}sulfonyl)benzamide] was 3.28 nM. Under setting [1], `CN1CCC(Nc2ccc(S(=O)(=O)NC(=O)c3ccc(N4CCN(CC5=C(c6ccc(Cl)cc6)CC(C)(C)CC5)CC4)cc3Oc3ccc(F)cc3Cl)cc2[N+](=O)[O-])CC1` [Example 61, 2-(2-chloro-4-fluorophenoxy)-4-(4-((2-(4-chlorophenyl)-4,4-dimethylcyclohex-1-en-1-yl)methyl)piperazin-1-yl)-N-((4-((1-methylpiperidin-4-yl)amino)-3-nitrophenyl)sulfonyl)benzamide] yielded an inhibitory constant (Ki) of 0.22 nM.

In the case of `CC(C)c1cc(Oc2cc(N3CCN(CC4=C(c5ccc(Cl)cc5)CC(C)(C)CC4)CC3)ccc2C(=O)NS(=O)(=O)c2ccc(NCC3CCOCC3)c([N+](=O)[O-])c2)cnc1N` [Example 365, 2-[(6-amino-5-isopropylpyridin-3-yl)oxy]-4-(4-{[2-(4-chlorophenyl)-4,4-dimethylcyclohex-1-en-1-yl]methyl}piperazin-1-yl)-N-({3-nitro-4-[(tetrahydro-2H-pyran-4-ylmethyl)amino]phenyl}sulfonyl)benzamide], the inhibition constant (Ki) under setting [1] worked out at 4.55 nM. Still for that read-out and setting: the value for `CN(C)Cc1ccccc1Oc1cc(N2CCN(Cc3ccccc3-c3ccc(Cl)cc3)CC2)ccc1C(=O)NS(=O)(=O)c1ccc(NCC2CCOCC2)c([N+](=O)[O-])c1` [Example 31, 4-(4-((4′-chloro-1,1′-biphenyl-2-yl)methyl)piperazin-1-yl)-2-(2-((dimethylamino)methyl)phenoxy)-N-((3-nitro-4-((tetrahydro-2H-pyran-4-ylmethyl)amino)phenyl)sulfonyl)benzamide] was 2.01 nM; that for `CC1(C)CCC(CN2CCN(c3ccc(C(=O)NS(=O)(=O)c4ccc(NC5CCN(C6CCOCC6)CC5)c([N+](=O)[O-])c4)c(Oc4cccc(F)c4F)c3)CC2)=C(c2ccc(Cl)cc2)C1` [Example 49, 4-(4-((2-(4-chlorophenyl)-4,4-dimethylcyclohex-1-en-1-yl)methyl)piperazin-1-yl)-2-(2,3-difluorophenoxy)-N-((3-nitro-4-((1-tetrahydro-2H-pyran-4-ylpiperidin-4-yl)amino)phenyl)sulfonyl)benzamide] was 0.062 nM. Regarding `CC1(C)CCC(CN2CCN(c3ccc(C(=O)NS(=O)(=O)c4ccc(NC[C@H]5CC[C@H](O)CC5)c([N+](=O)[O-])c4)c(Oc4cc5cc[nH]c5cc4F)c3)CC2)=C(c2ccc(Cl)cc2)C1` [Example 338, Trans-4-(4-{[2-(4-chlorophenyl)-4,4-dimethylcyclohex-1-en-1-yl]methyl}piperazin-1-yl)-2-[(6-fluoro-1H-indol-5-yl)oxy]-N-[(4-{[(4-hydroxycyclohexyl)methyl]amino}-3-nitrophenyl)sulfonyl]benzamide], the Ki was less than 0.01 nM. Consider `CC1(C)CCC(CN2CCN(c3ccc(C(=O)NS(=O)(=O)c4ccc(NCC5CCOCC5)c([N+](=O)[O-])c4)c(Oc4ccc(N)nc4)c3)CC2)=C(c2ccc(Cl)cc2)C1` [Example 272, 2-[(6-aminopyridin-3-yl)oxy]-4-(4-{[2-(4-chlorophenyl)-4,4-dimethylcyclohex-1-en-1-yl]methyl}piperazin-1-yl)-N-({3-nitro-4-[(tetrahydro-2H-pyran-4-ylmethyl)amino]phenyl}sulfonyl)benzamide], for which the Ki under setting [1] turned out to be 1.24 nM.

As a reminder, the Ki is the equilibrium dissociation constant of an inhibitor or competing ligand from its target. Lower therefore signals tighter binding.
